Assay results: patent US6623933B1 (priority 1999, dated 2003)
“And” between values parts separate entries of the source, which are not always exact repeats. Equal entries are not always repeated. Structures can show the parent of a compound that is named as a salt. Where two headings read alike, the source gives them in different places.

Key:
NR1011/NR2A = NR1011/NR2A (Rattus norvegicus, UniProt P35439+Q00959); set-up: agonist Emax: dose or concentration left out as unconfirmed
NR1001/NR2A = NR1001/NR2A (Rattus norvegicus, UniProt P35439+Q00959); set-up: agonist Emax: dose or concentration left out as unconfirmed
Penta-Mutant/NR2A = Penta-Mutant/NR2A (Rattus norvegicus, UniProt P35439+Q00959, K193A/K202A/R187A/R233A/R252A); assay: NMDA-induced currents, Xenopus oocytes, Example 5
Protocol: Plasmids were linearized with appropriate restriction enzyme prior to in vitro transcription using the Message Machine kit (Ambion, Inc., Austin, Tex.).
Female, oocyte positive Xenopus laevis frogs were purchased from Xenopus I (Dexter, Mich). […] Oocytes were injected with 50 nL of RNA solutions using an electronic microinjector (Drummond Inc., Broomall, Pa.). […] The injected oocytes were used for experiments following 1-5 days of incubation in Barth's solution at 18-20° C.
The microelectrodes were fabricated with a programmed puller (Sutter Instrument Co., Calif.) from borosilicate glass capillaries and were filled with 3 M KCl solution. The resistance of filled microelectrodes was in the range of 1-3 MΩ. […] If not mentioned otherwise, during data acquisition oocytes were clamped at a holding potential of −70 mV. The membrane current was filtered at 500 Hz and sampled at 100 Hz. Drugs were applied using a gravity driven external perfusion system. The working ,volume of the recording chamber was 30 μl and the rate of the perfusion was 50 μl/sec. The drug application lasted 10 sec and was followed by a 60 sec wash. The data acquisition and external perfusion control were done using the SuperScopeII software package (GW Instruments, Mass.). All experiments were performed at room temperature (22-24° C.). Peak or steady-state current measurements were normalized and expressed as a fraction of the peak or steady-state control current measurements, which were performed before and after application of every single consentration of agonist or steroid. […] The data are presented as mean±S.E.M. with number of experiments in parentheses.

[1] = biological target: T1, NR1100+NR2A NMDA receptor (Rattus norvegicus, UniProt P35439+Q00959); assay: NMDA-induced currents, Xenopus oocytes, Example 1; format: cell-based; details: for Percentage change in NMDA response: NR1100 + NR2A, steroid 100 μM, −100 mV
T1 construct: expressed in transfected cells; host or cells: Xenopus oocytes co-injected with NR1100 and NR2A cRNA
Source text: Plasmids were obtained from the following individuals: Dr. Suzanne Zukin (Albert Einstein College of Medicine, Bronx, N.Y.), NR1100; Dr. Shigetada Nakanishi (Kyoto University Faculty of Medicine, Kyoto, Japan), NR2A; Dr. Stephen Heinemann (Salk Institute, San Diego, Calif.), GluR1 (flop), GluR3 (flop), and GluR6. Plasmids were linearized with BamH1 (NR1100), XhoI (NR2A, GluR1, GluR3) or XbaI (GluR6) prior to in vitro transcription with T3 (GluR1, GluR3, GluR6) or T7 (NR1100, NR2A) RNA polymerase using the Message Machine kit (Ambion, Austin, Tex.). […] RNA solutions (50-70 nl) were injected into oocytes for delivery of NR1100 (5 ng), NR1100:NR2A (1:10 ng), GluR1 (5 ng). GluR3 (5 ng), or GluR6 (20 ng). Oocytes were incubated in ND96 at 18-20° C. for 3-7 days prior to electrophysiological recording.
Steroid solutions were prepared as 70-100 mM frozen stocks in dimethyl sulfoxide (DMSO). The final DMSO concentration of all recording solutions was between 0.1% to 0.5% and was constant within an experiment.
Perfusion control and data acquisition were carried out using an automated oocyte electrophysiology workstation that was developed for the rapid collection of concentration-response data and real-time waveform analysis (Yaghoubi et al., Soc. Neurosci. Abstr. 20: 1109 (1995)). This system is implemented on a Macintosh IIci computer (Apple Computer, Cupertino, Calif.) equipped with MacA-DIOS II data acquisition and control hardware (GW Instruments, Somerville, Mass.). Drug application is controlled by the computer through a series of valves, using custom-written software based on the SuperScope II development environment, improving the efficiency and reproducibility of data collection. Experiments were carried out using an Axoclamp-2A voltage clamp amplifier (Axon Instruments, Foster City, Calif.) in two-electrode voltage clamp mode. Intracellular microelectrodes (1-3 MΩ) were filled with 3 M KCl. […] Membrane potential was clamped at −60 to −70 mV and stepped to −100 mV at the start of data acquisition unless otherwise stated. […] Current and voltage recordings were digitized at 100 Hz for analysis. GluR6 injected oocytes were treated for 10 min with 10 μg/ml concanavalin A to prevent fast desensitization.
Results are expressed as mean±S.E.M. Statistical comparisons were made using Student's t-test.

NR1/NR2C (NR1100) = NR1/NR2C (NR1100) (Rattus norvegicus, UniProt P35439+Q00961)
Sequence of NR1/NR2C (NR1100) (Q00961 20-1237, other chains not shown): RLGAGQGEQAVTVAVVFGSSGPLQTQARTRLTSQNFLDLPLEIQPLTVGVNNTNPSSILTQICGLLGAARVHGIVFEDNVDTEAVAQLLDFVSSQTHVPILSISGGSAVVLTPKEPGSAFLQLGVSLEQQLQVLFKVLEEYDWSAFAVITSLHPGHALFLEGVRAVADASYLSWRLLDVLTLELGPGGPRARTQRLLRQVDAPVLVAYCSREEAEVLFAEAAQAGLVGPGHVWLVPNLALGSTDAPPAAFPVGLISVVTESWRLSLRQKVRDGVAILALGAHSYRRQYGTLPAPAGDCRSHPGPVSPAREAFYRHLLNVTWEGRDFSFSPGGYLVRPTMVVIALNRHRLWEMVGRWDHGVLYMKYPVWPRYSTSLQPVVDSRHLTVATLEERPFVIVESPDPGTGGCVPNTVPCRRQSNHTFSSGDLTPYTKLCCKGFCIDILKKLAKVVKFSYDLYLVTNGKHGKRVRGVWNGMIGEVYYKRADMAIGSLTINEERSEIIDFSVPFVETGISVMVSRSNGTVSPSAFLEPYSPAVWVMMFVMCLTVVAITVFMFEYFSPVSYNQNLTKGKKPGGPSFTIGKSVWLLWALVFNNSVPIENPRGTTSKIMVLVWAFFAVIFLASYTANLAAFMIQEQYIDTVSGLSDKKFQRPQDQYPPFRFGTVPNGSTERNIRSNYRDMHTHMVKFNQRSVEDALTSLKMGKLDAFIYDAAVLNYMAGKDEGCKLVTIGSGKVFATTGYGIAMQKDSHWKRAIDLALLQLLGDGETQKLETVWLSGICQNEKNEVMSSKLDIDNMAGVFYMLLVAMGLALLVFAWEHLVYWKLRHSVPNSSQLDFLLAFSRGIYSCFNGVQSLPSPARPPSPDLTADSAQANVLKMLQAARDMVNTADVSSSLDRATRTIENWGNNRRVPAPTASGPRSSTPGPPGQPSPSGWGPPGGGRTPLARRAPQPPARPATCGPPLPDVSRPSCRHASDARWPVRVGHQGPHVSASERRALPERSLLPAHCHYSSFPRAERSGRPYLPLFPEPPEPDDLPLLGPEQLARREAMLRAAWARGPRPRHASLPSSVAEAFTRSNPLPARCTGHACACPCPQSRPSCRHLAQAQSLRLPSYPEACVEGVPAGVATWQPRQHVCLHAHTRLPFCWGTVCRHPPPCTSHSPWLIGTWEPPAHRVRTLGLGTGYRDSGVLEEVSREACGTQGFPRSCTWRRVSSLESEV
Source text: (§1) Plasmids containing the NR1100 (NR1G) and NR2A cDNA inserts were kindly provided by Dr. Nakanishi (Kyoto University Faculty of Medicine, Kyoto, Japan). Plasmids containing the NR2B, NR2C and NR2D cDNA inserts were kindly provided by Dr. P. Seeburg (Heidelberg University, Heidelberg, Germany). Plasmids were linearized with appropriate restriction enzyme prior to in vitro transcription using the Message Machine kit (Ambion, Inc., Austin, Tex.).
(§2) Female, oocyte-positive Xenopus laevis frogs were purchased from Xenopus I (Dexter, Mich.). […] Oocytes were injected with 50 nL of RNA solutions using an electronic microinjector (Drummond Inc., Broomall, Pa.). […] The injected oocytes were used for experiments following 1-5 days of incubation in Barth's solution at 18-20° C.
(§3) The microelectrodes were fabricated from borosilicate glass capillaries with a programmed puller (Sutter Instrument Co., Calif.). Microelectrode resistance was 1-3 MΩ_when filled with 3 M KCl.
(§4) Except where otherwise stated, oocytes were clamped at a holding potential of −70 mV during data acquisition. The membrane current was filtered at 500 Hz and sampled at 100 Hz. Drugs were applied using a gravity-driven external perfusion system. The working volume of the recording chamber was 30 μl and the rate of the perfusion was 50 μl/sec. The drug application lasted 10 sec and was followed by 60 s wash. Data acquisition and external perfusion were controlled using custom-written software implemented in the SuperScope II development environment (GW Instruments, Mass.). All experiments were performed at room temperature of 22-24° C. Peak or steady-state current measurements were normalized and expressed as a fraction of the peak or steady-state control current measurements, which were performed before and after application of every single concentration of agonists or steroids.
(§5) Concentration-response data were analyzed by nonlinear regress ion using the logistic equation Response=Emax/(1+(EC50/c)^nH), where c is concentration, Emaxis the maximum response, nHis the Hill coefficient. The data are presented as mean±SEM. EC50values are averaged as logarithms (De Lean et al., Am. J. Physiol. 235: E97-E102 (1978))±the SEM of the log EC50. […] The pooled data were simultaneously fitted to the logistic equation, either with Emax and EC50 constrained to be identical in the presence and absence of PS, or allowing one or both to vary independently. […] This was regarded as indicating a significant treatment effect of PS, but the change in EC50and Emaxwas not considered significant. […] No attempt was made to test the generally small changes in nHfor statistical significance.

NR1010/NR2A = NR1010/NR2A (Rattus norvegicus, UniProt P35439+Q00959); set-up: agonist nHill / agonist Emax: dose or concentration left out as unconfirmed
Sequence of NR1010/NR2A (Q00959 23-1464, other chains not shown): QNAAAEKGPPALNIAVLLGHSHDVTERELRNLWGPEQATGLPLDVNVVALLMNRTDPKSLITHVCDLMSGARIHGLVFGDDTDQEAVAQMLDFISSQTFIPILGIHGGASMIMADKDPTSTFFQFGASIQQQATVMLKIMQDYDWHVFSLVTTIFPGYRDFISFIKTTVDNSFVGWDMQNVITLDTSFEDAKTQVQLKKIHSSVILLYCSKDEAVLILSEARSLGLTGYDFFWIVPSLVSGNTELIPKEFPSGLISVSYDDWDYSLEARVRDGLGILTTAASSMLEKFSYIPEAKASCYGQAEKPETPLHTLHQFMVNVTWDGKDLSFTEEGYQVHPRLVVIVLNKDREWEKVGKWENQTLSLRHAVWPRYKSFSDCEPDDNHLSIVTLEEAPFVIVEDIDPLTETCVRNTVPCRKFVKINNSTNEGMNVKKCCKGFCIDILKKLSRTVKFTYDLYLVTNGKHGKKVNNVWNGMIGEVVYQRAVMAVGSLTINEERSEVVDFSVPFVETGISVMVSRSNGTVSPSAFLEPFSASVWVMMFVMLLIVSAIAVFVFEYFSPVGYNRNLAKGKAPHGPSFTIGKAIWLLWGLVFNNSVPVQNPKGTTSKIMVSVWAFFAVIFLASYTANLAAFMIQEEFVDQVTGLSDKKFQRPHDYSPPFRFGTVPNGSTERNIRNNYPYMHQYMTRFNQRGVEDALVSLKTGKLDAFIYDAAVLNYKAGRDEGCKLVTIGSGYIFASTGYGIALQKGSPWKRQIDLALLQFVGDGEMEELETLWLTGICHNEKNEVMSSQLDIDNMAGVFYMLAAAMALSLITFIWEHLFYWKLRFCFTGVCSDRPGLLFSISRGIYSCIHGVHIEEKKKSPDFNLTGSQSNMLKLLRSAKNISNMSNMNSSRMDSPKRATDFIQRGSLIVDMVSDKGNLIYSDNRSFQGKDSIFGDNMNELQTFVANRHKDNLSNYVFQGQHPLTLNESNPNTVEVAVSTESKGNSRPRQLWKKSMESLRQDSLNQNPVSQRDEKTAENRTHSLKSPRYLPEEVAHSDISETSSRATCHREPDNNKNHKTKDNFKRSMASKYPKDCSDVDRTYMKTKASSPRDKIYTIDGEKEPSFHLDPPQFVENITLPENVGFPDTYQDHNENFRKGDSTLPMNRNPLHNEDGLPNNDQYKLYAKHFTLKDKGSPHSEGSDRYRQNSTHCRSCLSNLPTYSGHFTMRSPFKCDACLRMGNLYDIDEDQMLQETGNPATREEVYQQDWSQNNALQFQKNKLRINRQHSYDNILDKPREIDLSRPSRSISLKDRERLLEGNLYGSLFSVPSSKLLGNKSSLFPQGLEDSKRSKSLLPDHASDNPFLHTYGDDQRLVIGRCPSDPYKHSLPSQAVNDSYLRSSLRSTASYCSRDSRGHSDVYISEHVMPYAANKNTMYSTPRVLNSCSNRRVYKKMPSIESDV

NR1101/NR2A = NR1101/NR2A (Rattus norvegicus, UniProt P35439+Q00959); set-up: agonist Emax: dose or concentration left out as unconfirmed
NR1000/NR2A = NR1000/NR2A (Rattus norvegicus, UniProt P35439+Q00959); set-up: agonist Emax: dose or concentration left out as unconfirmed
Sequence of NR1000/NR2A (Q00959 23-1464, other chains not shown): as above

NR1/NR2A (NR1100) = NR1/NR2A (NR1100) (Rattus norvegicus, UniProt P35439+Q00959)
Source text: as §1, §2, §3, §4, §5

For `CC(=O)[C@H]1CC[C@H]2[C@@H]3CC[C@@H]4C[C@H](OS(=O)(=O)O)CC[C@]4(C)[C@H]3CC[C@]12C` [3α5βS, 3α5β-pregnanolone sulfate], the “3α5βS Emax” value (NR1011/NR2A; splice variant 011 /NR2A) was −0.86 ± 0.04, the “3α5βS nHill” value (NR1011/NR2A; splice variant 011 /NR2A) was 0.96 ± 0.06 and the “3α5βS Emax” value (NR1001/NR2A; splice variant 001 /NR2A) was −0.89 ± 0.05. The “3α5βS nHill” value (NR1001/NR2A; splice variant 001 /NR2A) was 0.95 ± 0.11, the “percent decrease in maximum inward current” value (Penta-Mutant/NR2A; Penta-Mutant/NR2A, 100 uM steroid, 300 uM NMDA, 50 uM Glycine) was 42.79±2.29% and the EC50 [1] was 41 µM. The “Percentage change in NMDA response” value ([1]; 100 μM NMDA) was −64 ± 3(7) %, the “3α5βS nH” value (NR1/NR2C (NR1100); NR1/NR2C) was 1.34 ± 0.04 and the “3α5βS Emax” value (NR1010/NR2A; splice variant 010 /NR2A) was −0.85 ± 0.02. The “3α5βS nHill” value (NR1010/NR2A; splice variant 010 /NR2A) was 1.04 ± 0.06, the “3α5βS Emax” value (NR1101/NR2A; splice variant 101 /NR2A) was −0.90 ± 0.07 and the “3α5βS nHill” value (NR1101/NR2A; splice variant 101 /NR2A) was 1.05 ± 0.25. The “3α5βS Emax” value (NR1000/NR2A; splice variant 000 /NR2A) was −0.89 ± 0.01, the “3α5βS nHill” value (NR1000/NR2A; splice variant 000 /NR2A) was 0.98 ± .03 and the “3α5βS nH” value (NR1/NR2A (NR1100)) was 1.39 ± 0.07.
With `CN[C@H](CC(=O)O)C(=O)O` [NMDA, N-methyl-D-aspartate] the “agonist Emax” value (NR1011/NR2A; NR1011/NR2A, absence of PS) was 1.14 ± 0.02, the “agonist nHill” value (NR1011/NR2A; NR1011/NR2A, absence of PS) was 1.39 ± 0.07 and the “agonist nHill” value (NR1011/NR2A; NR1011/NR2A, presence of 100 mM PS) was 1.11 ± 0.12. The “agonist Emax” value (NR1011/NR2A; NR1011/NR2A, presence of PS) was “(1.68 ± 0.06)”, the “agonist Emax” value (NR1001/NR2A; NR1001/NR2A, absence of PS) was 1.27 ± 0.04 and the “agonist nHill” value (NR1001/NR2A; NR1001/NR2A, absence of PS) was 1.46 ± 0.07. The “agonist nHill” value (NR1001/NR2A; NR1001/NR2A, presence of 100 mM PS) was 1.21 ± 0.15, the “agonist Emax” value (NR1001/NR2A; NR1001/NR2A, presence of PS) was “(2.15 ± 0.17)” and the EC50 (Penta-Mutant/NR2A; read-out: NMDA EC50, Penta-mutant/NR2A) was 55 ± 3.4 µM. The “NMDA Emax (normalized to 100 μM NMDA response)” value ([1]; NR1100+NR2A, +100 μM 3α5βS) was 0.35, the “NMDA nH” value ([1]; NR1100+NR2A, +100 μM 3α5βS) was 1.66 and the “NMDA Emax (normalized to 100 μM NMDA response)” value ([1]; NR1100+NR2A, +100 μM PS) was 3.21. The “NMDA nH” value ([1]; NR1100+NR2A, +100 μM PS) was 1.54, the “NMDA Emax (normalized to 100 μM NMDA response)” value ([1]; NR1100+NR2A, control) was 1.14 and the “NMDA nH” value ([1]; NR1100+NR2A, control) was 1.43. For the same compound, the EC50 ([1]; read-out: NMDA EC50, NR1100+NR2A, +100 μM 3α5βS) was 15 µM, the EC50 ([1]; read-out: NMDA EC50, NR1100+NR2A, +100 μM PS) was 30 µM and the “agonist Emax” value (NR1/NR2C (NR1100); NR1/NR2C, +100 μM PS) was 0.69. For the same compound, the “agonist nH” value (NR1/NR2C (NR1100); NR1/NR2C, +100 μM PS) was 1.33 ± 0.03, the “agonist Emax” value (NR1/NR2C (NR1100); NR1/NR2C, no PS) was 1.05 ± 0.01 and the “agonist nH” value (NR1/NR2C (NR1100); NR1/NR2C, no PS) was 1.18 ± 0.02. The EC50 (NR1/NR2C (NR1100); read-out: agonist EC50, NR1/NR2C, +100 μM PS) was 15 µM, the “agonist Emax” value (NR1010/NR2A; NR1010/NR2A, absence of PS) was 1.18 ± 0.03 and the “agonist nHill” value (NR1010/NR2A; NR1010/NR2A, absence of PS) was 1.19 ± 0.06. For the same compound, the “agonist Emax” value (NR1010/NR2A; NR1010/NR2A, presence of PS) was “(1.53 ± 0.08)”, the “agonist nHill” value (NR1010/NR2A; NR1010/NR2A, presence of PS) was 1.13 ± 0.09 and the “agonist Emax” value (NR1101/NR2A; NR1101/NR2A, absence of PS) was 1.33 ± 0.07. For the same compound, the “agonist nHill” value (NR1101/NR2A; NR1101/NR2A, absence of PS) was 1.31 ± 0.05, the “agonist nHill” value (NR1101/NR2A; NR1101/NR2A, presence of 100 mM PS) was 1.15 ± 0.12 and the “agonist Emax” value (NR1101/NR2A; NR1101/NR2A, presence of PS) was “(1.78 ± 0.06)”. The “agonist Emax” value (NR1000/NR2A; NR1000/NR2A, absence of PS) was 1.20 ± 0.05, the “agonist nHill” value (NR1000/NR2A; NR1000/NR2A, absence of PS) was 1.31 ± 0.08 and the “agonist nHill” value (NR1000/NR2A; NR1000/NR2A, presence of 100 mM PS) was 1.18 ± 0.05. The “agonist Emax” value (NR1000/NR2A; NR1000/NR2A, presence of PS) was “(1.55 ± 0.04)”, the “agonist Emax” value (NR1/NR2A (NR1100); +100 μM PS) was 1.60 and the “agonist nH” value (NR1/NR2A (NR1100); +100 μM PS) was 1.20 ± 0.06. The “agonist nH” value (NR1/NR2A (NR1100); no PS) was 1.13 ± 0.04, the “agonist Emax” value (NR1/NR2A (NR1100); no PS, normalized to 200 μM NMDA plus 10 μM glycine) was 1.36 ± 0.04 and the EC50 (NR1/NR2A (NR1100); read-out: agonist EC50, +100 μM PS) was 39 µM. For the same compound, the EC50 (NR1/NR2A (NR1100); read-out: agonist EC50, no PS) was 73 µM.
pregnenolone sulfate [PS] was tested, and the “Maximum potentiation of NMDA-induced current by PS” value (shortened to “Maximum potentiation”) (NR1011/NR2A; NR1011/NR2A) was 2.14±0.17 fold, the “PS Emax” value (NR1011/NR2A; NR1011/NR2A) was 1.14 ± 0.17 and the “PS nHill” value (NR1011/NR2A; NR1011/NR2A) was 1.18 ± 0.18. The “Maximum potentiation” value (NR1001/NR2A; NR1001/NR2A) was 2.19±0.09 fold, the “PS Emax” value (NR1001/NR2A; NR1001/NR2A) was 1.19 ± 0.09 and the “PS nHill” value (NR1001/NR2A; NR1001/NR2A) was 1.14 ± 0.10. The “reduction in PS potentiation of the NMDA response vs wild type” value (Penta-Mutant/NR2A; 100 uM PS, 300 uM NMDA, 50 uM Glycine) was 40% and 47.5±8.80%, the “Percentage change in NMDA response” value ([1]; 100 μM NMDA) was “+281 ± 27(7) %” and the “maximum enhancement of NMDA response” value ([1]; NR1100+NR2A, 100 μM NMDA) was 343%. The “steroid Emax (NMDA-induced current relative to control)” value ([1]; NR1100+NR2A, 100 μM NMDA) was 4.43, the “fold less potent as inhibitor of NR1/NR2C and NR1/NR2D than in potentiating NR1/NR2A and NR1/NR2B” value (NR1/NR2C (NR1100)) was 3.4- to 5.6 fold and the “PS nH” value (NR1/NR2C (NR1100); NR1/NR2C) was 1.32 ± 0.29. For the same compound, the “inhibition of NMDA-induced current” value (NR1/NR2C (NR1100); NR1/NR2C, 100 μM PS, […] μM NMDA) was 35±3%, the “PS Emax (% Change)” value (NR1/NR2C (NR1100); NR1/NR2C, […] μM NMDA, 10 μM glycine) was −63 ± 9% and the “PS Emax” value (NR1010/NR2A; NR1010/NR2A) was 1.03 ± 0.09. The “PS nHill” value (NR1010/NR2A; NR1010/NR2A) was 1.30 ± 0.18, the “Maximum potentiation” value (NR1101/NR2A; NR1101/NR2A) was 1.66±0.10 fold and the “PS Emax” value (NR1101/NR2A; NR1101/NR2A) was 0.66 ± 0.10. The “PS nHill” value (NR1101/NR2A; NR1101/NR2A) was 1.52 ± 0.24, the “Maximum potentiation” value (NR1000/NR2A; NR1000/NR2A) was 2.14±0.08 fold and the “PS Emax” value (NR1000/NR2A; NR1000/NR2A) was 1.14 ± 0.08. For the same compound, the “PS nHill” value (NR1000/NR2A; NR1000/NR2A) was 1.31 ± 0.06, the “PS nH” value (NR1/NR2A (NR1100)) was 1.33 ± 0.08 and the “PS Emax (% Change)” value (NR1/NR2A (NR1100); 80 μM NMDA, 10 μM glycine) was “+167 ± 7%”. The “enhancement of NMDA plus glycine current” value (NR1/NR2A (NR1100); 100 μM PS, 80 μM NMDA) was 62±8%.
